Test results published in US11471442B2, “Administration of gut-selective JAK3 inhibitor” (THERAVANCE BIOPHARMA R&D IP, LLC, priority 2020, dated 2022).
Like-named read-outs stand apart in the source and are kept apart here.

How the values were obtained:
[1] = Phase 1 SAD (Part A) plasma and urine pharmacokinetics in healthy subjects; format: in vivo, human; conditions: for AUC(0-inf) / Cmax / Tmax / half-life: human, plasma; for Tmax: read-out: Tmax, median (min, max); for half-life: read-out: t1/2, mean (SD) (converted)
Procedure: (§1) The plasma PK parameters of the compound of formula (I) calculated following single (Part A) or multiple (Parts B) oral doses.
In each cohort, healthy subjects meeting eligibility criteria were sequentially randomized in a 3:1 ratio to receive either the compound of formula (I) or matching placebo. Study drug was administered orally as a single dose on the morning of Day 1 following an overnight fast of at least 9.5 hours. Subjects were dosed in an upright (i.e., seated or standing) position and remained upright for 5 minutes following dosing prior to performing study procedures which require a posture change. Subjects were to remain fasted, except water, until after the 4-hour post-dose assessments were completed and the 4-hour post dose PK sample was collected. PK sampling for the compound of formula (I) in plasma and urine were taken Day 1 pre-dose and for 72 hours post-dose.
(§2) For all subjects, blood samples for the determination of plasma concentration of the compound of formula (I) were collected at scheduled time points. Blood samples were analyzed to calculate different plasma PK parameters in both part A and part B.
Urine samples for the determination of concentration of the compound of formula (I) were collected at various posedose intervals only in part A.
(§3) For all PK data analyses, the PK analysis set was used. Individual subject and mean plasma drug concentration versus time curves for the compound of formula (I) were presented for each dose group. Summary statistics (mean, standard deviation, coefficient of variation, median, minimum, maximum, geometric mean, geometric coefficient of variation, number of subjects) were calculated for plasma concentrations at each time point for each dose group, and the PK parameters for each dose group. Urine PK parameters were summarized for exploratory purposes.

[2] = Phase 1 multiple ascending dose (MAD, Part B) safety and tolerability in healthy subjects; format: in vivo, human; conditions: for Most frequent TEAEs: Acne / Most frequent TEAEs: Dizziness / Most frequent TEAEs: Headache / Most frequent TEAEs: Pain in extremity / Subjects with TEAEs: Any TEAE / Subjects with TEAEs: Moderate or severe TEAE / Subjects with TEAEs: Serious TEAE / Subjects with TEAEs: TEAE leading to discontinuation / Total number of TEAEs: MAD, n = 6
Text: This clinical study was the first in human study of a compound of formula (I). The purpose of this study was to assess the safety, tolerability and pharmacokinetics (PK) of the compound of formula (I) through single ascending dose administration (Part A) and multiple dose administrations (Part B) in healthy subjects.
The number and severity of treatment emergent adverse events (TEAE5) following single (Part A) or multiple (Parts B) oral doses of the compound of formula (I) and matching placebo, and changes in safety laboratory assessments, vital signs, and ECGs.
24 healthy, adult male and female subjects were enrolled in Part B. […] cohorts (B1 to B3) of 8 healthy subjects (6 active and 2 placebo) were evaluated.
In each cohort, healthy subjects meeting eligibility criteria were sequentially randomized in a 3:1 ratio to receive either the compound of formula (I) or placebo BID, each morning and evening (approximately 12 hours following the morning dose) for 10 consecutive days of dosing, except for Day 10 where subjects were only received a morning dose. Subjects were dosed in an upright (i.e., seated or standing) position and remained upright for 5 minutes after dosing before a posture change for other study procedures, if applicable. Subjects fasted overnight for at least 9.5 hours prior to morning dose on Day 1 and Day 10. Subjects continued the fast for at least 4 hours post morning dose on these days. For all other morning doses and for all evening doses (i.e., Day 1 evening and Days 2 to 9), subjects were required to fast for at least 2 hours prior and for at least 2 hours following the dose.
Safety was determined by evaluating physical examinations, vital signs, safety 12-lead electrocardiograms (ECGs) monitoring, clinical laboratory tests, and adverse events (AEs). For procedures scheduled to be performed at common times, collection of PK samples was collected as close as possible to the designated time. The cardiodynamic recordings via ECG extractions from the Holter monitor were conducted as close as possible prior to the corresponding PK sampling. Vital signs, followed by safety ECGs, were be taken before the PK sampling (or before the cardiodynamic sampling if scheduled at the same time), unless PK samples were late as a result in which case vital signs were taken following the PK sampling.
Safety analyses were performed using the Safety analysis set. Safety variables include vital signs, adverse events, clinical laboratory results (hematology, chemistry, coagulation, and urinalysis), and ECG parameters, such as Friderica's corrected QT interval (QTcF), PR interval, QT interval, QRS interval, and heart rate, from standard safety digital ECGs. Vital signs were summarized in terms of observed values and changes from baseline.

[3] = Caco-2 permeation assay; format: in vitro ADME; conditions: human, read-out: Kp (permeability)
[4] = system: oxazolone-induced colitis model in mice; test: Oxazolone-induced colitis model in mice; format: in vivo
Text: (§4) Oxazolone-induced colitis is an experimental model that has a histological resemblance to human ulcerative colitis.

[5] = system: IL-2 induced pSTAT5; test: Murine model of IL-2 induced pSTAT5 induction in the thymus; format: in vivo
[6] = system: NK cells; test: NK cell counts (immunophenotyping) in MAD cohorts; format: in vivo, human; conditions: day 1 to day 10, MAD
Procedure: Immunophenotyping was conducted on NK Cells in part B only.

[7] = Phase 1 pharmacokinetics across all SAD and MAD cohorts; format: in vivo; conditions: human, plasma, oral
Procedure: as §1, §2, §3

[8] = system: splenic NK cell counts; test: Immunosuppression model in mice (splenic NK cell counts); format: in vivo; conditions: same or higher doses than required for efficacy in the oxazolone model
Text: as §4

[9] = single oral dose 1000 mg, n = 6
[10] = single oral dose 2000 mg, n = 6

- dose proportionality of exposure (AUC and Cmax) ([1]; across the studied single-dose range): slightly less than dose proportional
- Urinary excretion, average ([1]; all single-dose levels): < 0.1%
- AUC(0-inf) ([1]; both sexes, oral, part A (SAD), 100 to 2000 mg, read-out: AUC0-inf in the plasma of the subjects (range)): 2.7 to 172 ng·h/mL
- AUC(0-inf) ([1]; both sexes, oral, part A (SAD), 100 to 2000 mg, read-out: average AUC0-inf): 8.38 to 96 ng·h/mL
- Cmax ([1]; both sexes, oral, single dose of 2000 mg, read-out: average Cmax): 10 ng/mL
- AUC(0-inf) ([1]; po, 100 mg, single oral dose 100 mg, n = 6, read-out: AUCinf, mean (SD)): 8.4 ng·h/mL
- AUC(0-inf) ([1]; po, 300 mg, single oral dose 300 mg, n = 6, read-out: AUCinf, mean (SD)): 24.6 ng·h/mL
- AUC(0-inf) ([1]; po, 1000 mg, single oral dose 1000 mg, one subject excluded, read-out: AUCinf, mean (SD)): 47 ng·h/mL
- AUC(0-inf) ([1]; po, 2000 mg, single oral dose 2000 mg, n = 6, read-out: AUCinf, mean (SD)): 96 ng·h/mL
- Cmax ([1]; single oral dose 100 mg, n = 6, read-out: Cmax, mean (SD)): 1.3 ng/mL
- Tmax ([1]; single oral dose 100 mg, n = 6): 1 h
- half-life ([1]; single oral dose 100 mg, n = 6): 17.5 h
- Cmax ([1]; single oral dose 300 mg, n = 6, read-out: Cmax, mean (SD)): 3.4 ng/mL
- Tmax ([1]; single oral dose 300 mg, n = 6): 1 h
- half-life ([1]; single oral dose 300 mg, n = 6): 14.5 h
- Cmax ([1]; single oral dose 1000 mg, n = 6, read-out: Cmax, mean (SD)): 4.8 ng/mL
- Tmax [1, 9]: 1 h
- half-life ([1]; single oral dose 1000 mg, one subject excluded): 16.6 h
- Cmax ([1]; single oral dose 2000 mg, n = 6, read-out: Cmax, mean (SD)): 10.1 ng/mL
- Tmax [1, 10]: 2 h
- half-life [1, 10]: 16.6 h
- Plasma concentrations ([1]; single oral doses up to 2000 mg): < 35 ng/mL
- fe0-72 (percentage of dose excreted in urine over 0 to 72 hours), mean (SD) ([1]; single oral dose 100 mg, n = 6): 0.10 (0.051) %
- fe0-72 (percentage of dose excreted in urine over 0 to 72 hours), mean (SD) ([1]; single oral dose 300 mg, n = 6): 0.082 (0.025) %
- fe0-72 (percentage of dose excreted in urine over 0 to 72 hours), mean (SD) [1, 9]: 0.056 (0.025) %
- fe0-72 (percentage of dose excreted in urine over 0 to 72 hours), mean (SD) [1, 10]: 0.063 (0.028) %
- Papp [3]: < 5 ×10⁻⁶ cm/s
- changes in absolute or relative NK cell counts [6]: no apparent changes
- half-life ([7]; across all doses in the SAD and MAD cohorts, read-out: mean terminal elimination half-life): 15 to 20 h
- Cmax ([7]; across all doses, read-out: highest observed Cmax): 34.3 ng/mL
- splenic NK cell counts [8]: unaffected
Compound: CN(C)C/C=C/C(=O)N1CC(COc2cc(-c3ccc(O)cc3)cc3[nH]ncc23)C1 [compound of formula (I)]
- serious AEs ([2]; MAD cohorts): No serious AEs
- severity of reported treatment-emergent AEs ([2]; MAD cohorts): mild
- changes from predose baseline in laboratory assessments (lipid, coagulation, hematology), vital signs or ECGs ([2]; MAD cohorts, any time point postdose): No clinically significant changes
- Most frequent TEAEs: Acne ([2]; 100 mg BID oral for 10 days): 1 (17)
- Most frequent TEAEs: Dizziness ([2]; 100 mg BID oral for 10 days): 2 (33)
- Most frequent TEAEs: Headache ([2]; 100 mg BID oral for 10 days): 2 (33)
- Most frequent TEAEs: Pain in extremity ([2]; 100 mg BID oral for 10 days): 1 (17)
- Subjects with TEAEs: Any TEAE ([2]; 100 mg BID oral for 10 days): 5 (83)
- Subjects with TEAEs: Moderate or severe TEAE ([2]; 100 mg BID oral for 10 days): 0
- Subjects with TEAEs: Serious TEAE ([2]; 100 mg BID oral for 10 days): 0
- Subjects with TEAEs: TEAE leading to discontinuation ([2]; 100 mg BID oral for 10 days): 0
- Total number of TEAEs ([2]; 100 mg BID oral for 10 days): 11
- Most frequent TEAEs: Acne ([2]; 300 mg BID oral for 10 days): 0
- Most frequent TEAEs: Dizziness ([2]; 300 mg BID oral for 10 days): 0
- Most frequent TEAEs: Headache ([2]; 300 mg BID oral for 10 days): 0
- Most frequent TEAEs: Pain in extremity ([2]; 300 mg BID oral for 10 days): 0
- Subjects with TEAEs: Any TEAE ([2]; 300 mg BID oral for 10 days): 1 (17)
- Subjects with TEAEs: Moderate or severe TEAE ([2]; 300 mg BID oral for 10 days): 0
- Subjects with TEAEs: Serious TEAE ([2]; 300 mg BID oral for 10 days): 0
- Subjects with TEAEs: TEAE leading to discontinuation ([2]; 300 mg BID oral for 10 days): 0
- Total number of TEAEs ([2]; 300 mg BID oral for 10 days): 9
- Most frequent TEAEs: Acne ([2]; 1000 mg BID oral for 10 days): 0
- Most frequent TEAEs: Dizziness ([2]; 1000 mg BID oral for 10 days): 0
- Most frequent TEAEs: Headache ([2]; 1000 mg BID oral for 10 days): 0
- Most frequent TEAEs: Pain in extremity ([2]; 1000 mg BID oral for 10 days): 0
- Subjects with TEAEs: Any TEAE ([2]; 1000 mg BID oral for 10 days): 0
- Subjects with TEAEs: Moderate or severe TEAE ([2]; 1000 mg BID oral for 10 days): 0
- Subjects with TEAEs: Serious TEAE ([2]; 1000 mg BID oral for 10 days): 0
- Subjects with TEAEs: TEAE leading to discontinuation ([2]; 1000 mg BID oral for 10 days): 0
- Total number of TEAEs ([2]; 1000 mg BID oral for 10 days): 0
- tolerability ([2]; multiple doses up to 1000 mg BID for 10 days): generally well-tolerated
- activity in the oxazolone-induced colitis model [4]: demonstrated activity
- systemic activity (IL-2 induced pSTAT5 induction in the thymus) [5]: lack of systemic activity
